Results published in the supplement of paper PMC10307832.

Tests used:
Experiment in all cases: relative viability (nuclei count vs DMSO), 5 days (fraction); higher = more cells survive
Tosedostat + Dasatinib = compound: CC(C)C[C@@H](C(=O)N[C@H](C(=O)OC1CCCC1)c1ccccc1)[C@H](O)C(=O)NO [Tosedostat] + Cc1nc(Nc2ncc(C(=O)Nc3c(C)cccc3Cl)s2)cc(N2CCN(CCO)CC2)n1 [Dasatinib] (partner 0.075 µM)
In short: (§1)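 Relative viability divides the nuclei count in treated wells by that in vehicle wells. Lung cancer cell lines were seeded in 1536-well plates, dosed by pin tool the next day, and fixed and stained after 5 days in one step with final 0.05% Triton X-100, 1% formaldehyde and 1 ug/ml Hoechst. Dosing was a single drug or a fixed anchor-drug dose plus five library-drug doses (not always all listed) in √10 steps, and values are medians of duplicate plates imaged at 4×.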

Tosedostat + Pemetrexed = compound: CC(C)C[C@@H](C(=O)N[C@H](C(=O)OC1CCCC1)c1ccccc1)[C@H](O)C(=O)NO [Tosedostat] + Nc1nc2[nH]cc(CCc3ccc(C(=O)N[C@@H](CCC(=O)O)C(=O)O)cc3)c2c(=O)[nH]1 [Pemetrexed] (partner 0.2 µM)
In short: as §1

[1] = compound: CC1=NN=C(O1)C2=NN=C(C=C2)N3CCC(CC3)OC4=C(C=CC(=C4)F)Cl + CS(=O)(=O)CCNCc1ccc(-c2ccc3ncnc(Nc4ccc(OCc5cccc(F)c5)c(Cl)c4)c3c2)o1 [Lapatinib] (partner 2 µM)
In short: as §1

Tosedostat + Linsitinib = compound: CC(C)C[C@@H](C(=O)N[C@H](C(=O)OC1CCCC1)c1ccccc1)[C@H](O)C(=O)NO [Tosedostat] + C[C@]1(O)C[C@@H](c2nc(-c3ccc4ccc(-c5ccccc5)nc4c3)c3c(N)nccn32)C1 [Linsitinib] (partner 1 µM)
In short: as §1

NCI-H2342
relative viability (Tosedostat + Dasatinib; first compound 0.02 µM): 0.306
relative viability (Tosedostat + Dasatinib; first compound 0.06325 µM): 0.367
relative viability (Tosedostat + Dasatinib; first compound 0.2 µM): 0.321
relative viability (Tosedostat + Dasatinib; first compound 0.6325 µM): 0.275
relative viability (Tosedostat + Dasatinib; first compound 2 µM): 0.295
relative viability (Tosedostat + Pemetrexed; first compound 0.02 µM): 0.755
relative viability (Tosedostat + Pemetrexed; first compound 0.06325 µM): 0.776
relative viability (Tosedostat + Pemetrexed; first compound 0.2 µM): 0.846
relative viability (Tosedostat + Pemetrexed; first compound 0.6325 µM): 0.79
relative viability (Tosedostat + Pemetrexed; first compound 2 µM): 0.728

SK-MES-1
relative viability ([1]; first compound 0.253 µM): 0.452
relative viability ([1]; first compound 0.8 µM): 0.528
relative viability ([1]; first compound 2.53 µM): 0.445
relative viability ([1]; first compound 8 µM): 0.518
relative viability (Tosedostat + Dasatinib; first compound 0.02 µM): 0.285
relative viability (Tosedostat + Dasatinib; first compound 0.06325 µM): 0.237
relative viability (Tosedostat + Dasatinib; first compound 0.2 µM): 0.329
relative viability (Tosedostat + Dasatinib; first compound 0.6325 µM): 0.213
relative viability (Tosedostat + Dasatinib; first compound 2 µM): 0.229
relative viability (Tosedostat + Linsitinib; first compound 0.02 µM): 1.2
relative viability (Tosedostat + Linsitinib; first compound 0.06325 µM): 1.05
relative viability (Tosedostat + Linsitinib; first compound 0.2 µM): 1.06
relative viability (Tosedostat + Linsitinib; first compound 0.6325 µM): 1.01
relative viability (Tosedostat + Linsitinib; first compound 2 µM): 0.983
relative viability (Tosedostat + Pemetrexed; first compound 0.02 µM): 1.01
relative viability (Tosedostat + Pemetrexed; first compound 0.06325 µM): 1
relative viability (Tosedostat + Pemetrexed; first compound 0.2 µM): 1.11
relative viability (Tosedostat + Pemetrexed; first compound 0.6325 µM): 1.14
relative viability (Tosedostat + Pemetrexed; first compound 2 µM): 0.993

NCI-H1355
relative viability ([1]; first compound 2.53 µM): 0.869
relative viability ([1]; first compound 8 µM): 0.78
relative viability (Tosedostat + Dasatinib; first compound 0.02 µM): 0.758
relative viability (Tosedostat + Dasatinib; first compound 0.06325 µM): 0.681
relative viability (Tosedostat + Dasatinib; first compound 0.2 µM): 0.728
relative viability (Tosedostat + Dasatinib; first compound 0.6325 µM): 0.592
relative viability (Tosedostat + Dasatinib; first compound 2 µM): 0.57
relative viability (Tosedostat + Linsitinib; first compound 0.02 µM): 0.717
relative viability (Tosedostat + Linsitinib; first compound 0.06325 µM): 0.839
relative viability (Tosedostat + Linsitinib; first compound 0.2 µM): 0.762
relative viability (Tosedostat + Linsitinib; first compound 0.6325 µM): 0.701
relative viability (Tosedostat + Linsitinib; first compound 2 µM): 0.726
relative viability (Tosedostat + Pemetrexed; first compound 0.02 µM): 1.03
relative viability (Tosedostat + Pemetrexed; first compound 0.06325 µM): 1.05
relative viability (Tosedostat + Pemetrexed; first compound 0.2 µM): 1.14
relative viability (Tosedostat + Pemetrexed; first compound 0.6325 µM): 0.952
relative viability (Tosedostat + Pemetrexed; first compound 2 µM): 0.916

HCC-366
relative viability ([1]; first compound 0.253 µM): 0.384
relative viability ([1]; first compound 0.8 µM): 0.41
relative viability ([1]; first compound 2.53 µM): 0.393
relative viability ([1]; first compound 8 µM): 0.406
relative viability (Tosedostat + Dasatinib; first compound 0.02 µM): 0.723
relative viability (Tosedostat + Dasatinib; first compound 0.06325 µM): 0.594
relative viability (Tosedostat + Dasatinib; first compound 0.2 µM): 0.665
relative viability (Tosedostat + Dasatinib; first compound 0.6325 µM): 0.556
relative viability (Tosedostat + Dasatinib; first compound 2 µM): 0.646
relative viability (Tosedostat + Linsitinib; first compound 0.02 µM): 0.59
relative viability (Tosedostat + Linsitinib; first compound 0.06325 µM): 0.77
relative viability (Tosedostat + Linsitinib; first compound 0.2 µM): 0.721
relative viability (Tosedostat + Linsitinib; first compound 0.6325 µM): 0.457
relative viability (Tosedostat + Linsitinib; first compound 2 µM): 0.602
relative viability (Tosedostat + Pemetrexed; first compound 0.02 µM): 0.194
relative viability (Tosedostat + Pemetrexed; first compound 0.06325 µM): 0.183
relative viability (Tosedostat + Pemetrexed; first compound 0.2 µM): 0.285
relative viability (Tosedostat + Pemetrexed; first compound 0.6325 µM): 0.351
relative viability (Tosedostat + Pemetrexed; first compound 2 µM): 0.317

201T
relative viability ([1]; first compound 0.253 µM): 0.392
relative viability ([1]; first compound 0.8 µM): 0.471
relative viability ([1]; first compound 2.53 µM): 0.524
relative viability ([1]; first compound 8 µM): 0.435
relative viability (Tosedostat + Dasatinib; first compound 0.02 µM): 0.566
relative viability (Tosedostat + Dasatinib; first compound 0.06325 µM): 0.632
relative viability (Tosedostat + Dasatinib; first compound 0.2 µM): 0.635
relative viability (Tosedostat + Dasatinib; first compound 0.6325 µM): 0.717
relative viability (Tosedostat + Dasatinib; first compound 2 µM): 0.553
relative viability (Tosedostat + Linsitinib; first compound 0.02 µM): 0.99
relative viability (Tosedostat + Linsitinib; first compound 0.06325 µM): 1.09
relative viability (Tosedostat + Linsitinib; first compound 0.2 µM): 1.11
relative viability (Tosedostat + Linsitinib; first compound 0.6325 µM): 1.21
relative viability (Tosedostat + Linsitinib; first compound 2 µM): 1.17
relative viability (Tosedostat + Pemetrexed; first compound 0.02 µM): 0.336
relative viability (Tosedostat + Pemetrexed; first compound 0.06325 µM): 0.335
relative viability (Tosedostat + Pemetrexed; first compound 0.2 µM): 0.393
relative viability (Tosedostat + Pemetrexed; first compound 0.6325 µM): 0.355
relative viability (Tosedostat + Pemetrexed; first compound 2 µM): 0.307

HCC-827
relative viability ([1]; first compound 0.253 µM): 0.201
relative viability ([1]; first compound 0.8 µM): 0.197
relative viability ([1]; first compound 2.53 µM): 0.176
relative viability ([1]; first compound 8 µM): 0.2
relative viability (Tosedostat + Dasatinib; first compound 0.02 µM): 0.308
relative viability (Tosedostat + Dasatinib; first compound 0.06325 µM): 0.34
relative viability (Tosedostat + Dasatinib; first compound 0.2 µM): 0.301
relative viability (Tosedostat + Dasatinib; first compound 0.6325 µM): 0.377
relative viability (Tosedostat + Dasatinib; first compound 2 µM): 0.288
relative viability (Tosedostat + Linsitinib; first compound 0.02 µM): 0.966
relative viability (Tosedostat + Linsitinib; first compound 0.06325 µM): 0.934
relative viability (Tosedostat + Linsitinib; first compound 0.2 µM): 0.976
relative viability (Tosedostat + Linsitinib; first compound 0.6325 µM): 0.857
relative viability (Tosedostat + Linsitinib; first compound 2 µM): 0.909
relative viability (Tosedostat + Pemetrexed; first compound 0.02 µM): 0.24
relative viability (Tosedostat + Pemetrexed; first compound 0.06325 µM): 0.265
relative viability (Tosedostat + Pemetrexed; first compound 0.2 µM): 0.255
relative viability (Tosedostat + Pemetrexed; first compound 0.6325 µM): 0.318
relative viability (Tosedostat + Pemetrexed; first compound 2 µM): 0.353

PC-14
relative viability ([1]; first compound 0.253 µM): 0.294
relative viability ([1]; first compound 0.8 µM): 0.31
relative viability ([1]; first compound 2.53 µM): 0.302
relative viability ([1]; first compound 8 µM): 0.313
relative viability (Tosedostat + Dasatinib; first compound 0.02 µM): 0.245
relative viability (Tosedostat + Dasatinib; first compound 0.06325 µM): 0.237
relative viability (Tosedostat + Dasatinib; first compound 0.2 µM): 0.263
relative viability (Tosedostat + Dasatinib; first compound 0.6325 µM): 0.192
relative viability (Tosedostat + Dasatinib; first compound 2 µM): 0.208
relative viability (Tosedostat + Linsitinib; first compound 0.02 µM): 0.97
relative viability (Tosedostat + Linsitinib; first compound 0.06325 µM): 0.973
relative viability (Tosedostat + Linsitinib; first compound 0.2 µM): 0.982
relative viability (Tosedostat + Linsitinib; first compound 0.6325 µM): 0.915
relative viability (Tosedostat + Linsitinib; first compound 2 µM): 0.918
relative viability (Tosedostat + Pemetrexed; first compound 0.02 µM): 0.125
relative viability (Tosedostat + Pemetrexed; first compound 0.06325 µM): 0.135
relative viability (Tosedostat + Pemetrexed; first compound 0.2 µM): 0.157
relative viability (Tosedostat + Pemetrexed; first compound 0.6325 µM): 0.124
relative viability (Tosedostat + Pemetrexed; first compound 2 µM): 0.09

NCI-H2228
relative viability ([1]; first compound 0.253 µM): 1.03
relative viability ([1]; first compound 0.8 µM): 1.01
relative viability ([1]; first compound 2.53 µM): 1.13
relative viability ([1]; first compound 8 µM): 0.848
relative viability (Tosedostat + Dasatinib; first compound 0.02 µM): 0.51
relative viability (Tosedostat + Dasatinib; first compound 0.06325 µM): 0.497
relative viability (Tosedostat + Dasatinib; first compound 0.2 µM): 0.494
relative viability (Tosedostat + Dasatinib; first compound 0.6325 µM): 0.344
relative viability (Tosedostat + Dasatinib; first compound 2 µM): 0.338
relative viability (Tosedostat + Linsitinib; first compound 0.02 µM): 0.792
relative viability (Tosedostat + Linsitinib; first compound 0.06325 µM): 0.63
relative viability (Tosedostat + Linsitinib; first compound 0.2 µM): 0.686
relative viability (Tosedostat + Linsitinib; first compound 0.6325 µM): 0.612
relative viability (Tosedostat + Linsitinib; first compound 2 µM): 0.525
relative viability (Tosedostat + Pemetrexed; first compound 0.02 µM): 0.328
relative viability (Tosedostat + Pemetrexed; first compound 0.06325 µM): 0.32
relative viability (Tosedostat + Pemetrexed; first compound 0.2 µM): 0.317
relative viability (Tosedostat + Pemetrexed; first compound 0.6325 µM): 0.338
relative viability (Tosedostat + Pemetrexed; first compound 2 µM): 0.256

NCI-H727
relative viability ([1]; first compound 0.253 µM): 0.815
relative viability ([1]; first compound 0.8 µM): 0.721
relative viability ([1]; first compound 2.53 µM): 1.01
relative viability ([1]; first compound 8 µM): 0.795
relative viability (Tosedostat + Dasatinib; first compound 0.02 µM): 0.404
relative viability (Tosedostat + Dasatinib; first compound 0.06325 µM): 0.339
relative viability (Tosedostat + Dasatinib; first compound 0.6325 µM): 0.311
relative viability (Tosedostat + Dasatinib; first compound 2 µM): 0.29
relative viability (Tosedostat + Linsitinib; first compound 0.02 µM): 0.264
relative viability (Tosedostat + Linsitinib; first compound 0.06325 µM): 0.266
relative viability (Tosedostat + Linsitinib; first compound 0.2 µM): 0.272
relative viability (Tosedostat + Linsitinib; first compound 0.6325 µM): 0.168
relative viability (Tosedostat + Linsitinib; first compound 2 µM): 0.322
